In patent publication US7851474B2, “Dipiperazinyl ketones and related analogues” (Neurogen Corporation, priority 2005, dated 2010):

biological target: T1, chimeric human H3 receptor (Homo sapiens, UniProt Q9Y5N1, E19D); assay: Chimeric human H3 receptor GTP binding assay (agonist-stimulated GTP-gamma35S binding, Example 7); format: biochemical; settings: not given
T1 construct: made in house; host or cells: Sf9 insect cells (baculovirus infection); P2 membrane preparation
Procedure, shortened: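 Sf9 membranes co-expressing the chimeric receptor and heterotrimeric G-protein subunits, 35 μg protein per tube, in pH 7.4 Tris buffer with 10 μM GDP. Test compounds at 10^−10 to 10^−6 M with 1 μM histamine, 60 min at room temperature. Filter-bound GTP-gamma^35S read by scintillation; IC50 from non-linear regression of dose-response curves.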

T1 sequence (Q9Y5N1 with tags, fused parts or gaps E19D): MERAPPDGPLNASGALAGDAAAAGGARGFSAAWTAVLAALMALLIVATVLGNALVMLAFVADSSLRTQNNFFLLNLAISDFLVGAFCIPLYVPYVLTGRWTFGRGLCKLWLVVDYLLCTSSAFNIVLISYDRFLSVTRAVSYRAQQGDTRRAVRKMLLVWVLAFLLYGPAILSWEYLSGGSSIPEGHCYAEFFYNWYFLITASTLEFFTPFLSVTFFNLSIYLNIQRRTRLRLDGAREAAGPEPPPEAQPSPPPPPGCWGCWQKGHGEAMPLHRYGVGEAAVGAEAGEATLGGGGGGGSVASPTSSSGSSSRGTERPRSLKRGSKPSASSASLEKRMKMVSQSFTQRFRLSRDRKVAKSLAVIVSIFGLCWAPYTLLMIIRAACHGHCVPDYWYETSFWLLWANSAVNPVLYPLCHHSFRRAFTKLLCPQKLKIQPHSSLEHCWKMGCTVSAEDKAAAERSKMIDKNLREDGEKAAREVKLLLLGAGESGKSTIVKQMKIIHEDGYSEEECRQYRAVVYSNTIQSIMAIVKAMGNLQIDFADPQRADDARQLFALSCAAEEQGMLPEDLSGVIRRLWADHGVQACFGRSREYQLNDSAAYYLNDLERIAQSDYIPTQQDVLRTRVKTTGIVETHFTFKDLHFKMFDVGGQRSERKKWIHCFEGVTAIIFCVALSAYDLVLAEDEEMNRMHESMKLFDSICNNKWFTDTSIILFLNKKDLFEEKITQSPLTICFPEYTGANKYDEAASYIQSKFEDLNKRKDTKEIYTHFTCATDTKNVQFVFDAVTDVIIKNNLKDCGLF

Row | SMILES | Ki [µM]
1 | O=C(CN1CCN(c2cccc(C(F)(F)F)c2)CC1)N1CCN(C2CCC2)CC1 [Compound 590, 1-cyclobutyl-4-({4-[3-(trifluoromethyl)phenyl]piperazin-1-yl}acetyl)piperazine] | < 1

same assay, conditions: Table II, "*" in Ki; assay of Example 7; read-out: Ki

Row | SMILES | Ki [µM]
2 | CS(=O)(=O)c1ccc(N2CCN(CC(=O)N3CCN(C4CCC4)CC3)CC2)c(F)c1 [Compound 581, 1-cyclobutyl-4-({4-[2-fluoro-4-(methylsulfonyl)phenyl]piperazin-1-yl}acetyl)piperazine] | < 1
3 | O=C(CN1CCN(c2cccc(C(=O)N3CC=CCC3)c2)CC1)N1CCN(C2CCC2)CC1 [Compound 583] | < 1
4 | CSc1cccc(-c2ccc(N3CCN(CC(=O)N4CCN(C5CCC5)CC4)CC3)cc2)c1 [Compound 584, 1-cyclobutyl-4-({4-[3′-(methylthio)biphenyl-4-yl]piperazin-1-yl}acetyl)piperazine] | < 1
5 | O=C(CN1CCN(c2cccc(C(=O)N3CCCCC3)c2)CC1)N1CCN(C2CCC2)CC1 [Compound 585, 1-cyclobutyl-4-({4-[3-(piperidin-1-ylcarbonyl)phenyl]piperazin-1-yl}acetyl)piperazine] | < 1
6 | O=C(CN1CCN(c2cccc(C(=O)N3CCCC3)c2)CC1)N1CCN(C2CCC2)CC1 [Compound 586, 1-cyclobutyl-4-({4-[3-(pyrrolidin-1-ylcarbonyl)phenyl]piperazin-1-yl}acetyl)piperazine] | < 1
7 | O=C(CN1CCN(c2ccc(-c3cccc(OC(F)(F)F)c3)cc2)CC1)N1CCN(C2CCC2)CC1 [Compound 587, 1-cyclobutyl-4-({4-[3′-(trifluoromethoxy)biphenyl-4-yl]piperazin-1-yl}acetyl)piperazine] | < 1
8 | O=C(CN1CCN(c2ccc(-c3cccc(C(F)(F)F)c3)cc2)CC1)N1CCN(C2CCC2)CC1 [Compound 589, 1-cyclobutyl-4-({4-[3′-(trifluoromethyl)biphenyl-4-yl]piperazin-1-yl}acetyl)piperazine] | < 1
9 | O=C(CN1CCN(c2ccc(-c3ccc4c(c3)OCCO4)cc2)CC1)N1CCN(C2CCC2)CC1 [Compound 592, 1-cyclobutyl-4-({4-[4-(2,3-dihydro-1,4-benzodioxin-6-yl)phenyl]piperazin-1-yl}acetyl)piperazine] | < 1
10 | O=C(CN1CCN(c2ccc(C(=O)N3CC=CCC3)cc2)CC1)N1CCN(C2CCC2)CC1 [Compound 593, 1-cyclobutyl-4-({4-[4-(3,6-dihydropyridin-1(2H)-ylcarbonyl)phenyl]piperazin-1-yl}acetyl)piperazine] | < 1
11 | Cc1noc(-c2ccc(N3CCN(CC(=O)N4CCN(C5CCC5)CC4)CC3)cc2)n1 [Compound 594, 1-cyclobutyl-4-({4-[4-(3-methyl-1,2,4-oxadiazol-5-yl)phenyl]piperazin-1-yl}acetyl)piperazine] | < 1
12 | Cc1nc(-c2ccc(N3CCN(CC(=O)N4CCN(C5CCC5)CC4)CC3)cc2)no1 [Compound 595, 1-cyclobutyl-4-({4-[4-(5-methyl-1,2,4-oxadiazol-3-yl)phenyl]piperazin-1-yl}acetyl)piperazine] | < 1
13 | CCS(=O)(=O)c1ccc(N2CCN(CC(=O)N3CCN(C4CCC4)CC3)CC2)cc1 [Compound 597, 1-cyclobutyl-4-({4-[4-(ethylsulfonyl)phenyl]piperazin-1-yl}acetyl)piperazine] | < 1
14 | CS(=O)(=O)c1ccc(N2CCN(CC(=O)N3CCN(C4CCC4)CC3)CC2)cc1 [Compound 599, 1-cyclobutyl-4-({4-[4-(methylsulfonyl)phenyl]piperazin-1-yl}acetyl)piperazine] | < 1
15 | O=C(CN1CCN(c2ccc(C(=O)N3CCCCC3)cc2)CC1)N1CCN(C2CCC2)CC1 [Compound 601, 1-cyclobutyl-4-({40[4-(piperidin-1-ylcarbonyl)phenyl]piperazin-1-yl}acetyl)piperazine] | < 1
16 | CCCS(=O)(=O)c1ccc(N2CCN(CC(=O)N3CCN(C4CCC4)CC3)CC2)cc1 [Compound 602, 1-cyclobutyl-4-({4-[4-(propylsulfonyl)phenyl]piperazin-1-yl}acetyl)piperazine] | < 1
17 | O=C(CN1CCN(c2ccc(C(=O)N3CCCC3)cc2)CC1)N1CCN(C2CCC2)CC1 [Compound 603, 1-cyclobutyl-4-({4-[4-(pyrrolidin-1-ylcarbonyl)phenyl]piperazin-1-yl}acetyl)piperazine] | < 1
18 | O=C(CN1CCN(c2ccc(-c3ccc(OC(F)(F)F)cc3)cc2)CC1)N1CCN(C2CCC2)CC1 [Compound 604, 1-cyclobutyl-4-({4-[4′-(trifluoromethoxy)biphenyl-4-yl]piperazin-1-yl}acetyl)piperazine] | < 1
19 | O=C(CN1CCN(c2ccc(-c3ccc(C(F)(F)F)cc3)cc2)CC1)N1CCN(C2CCC2)CC1 [Compound 606, 1-cyclobutyl-4-({4-[4′-(trifluoromethyl)biphenyl-4-yl]piperazin-1-yl}acetyl)piperazine] | < 1

Row | SMILES | Ki [µM]
20 | O=C(CN1CCN(c2ccc(F)c(C(F)(F)F)c2)CC1)N1CCN(C2CCC2)CC1 [Compound 607, 1-cyclobutyl-4-({4-[4-fluoro-3-(trifluoromethyl)phenyl]piperazin-1-yl}acetyl)piperazine] | < 1
21 | O=C(CN1CCN(c2ccc(C(=O)N3CC=CCC3)cn2)CC1)N1CCN(C2CCC2)CC1 [Compound 609, 1-cyclobutyl-4-({4-[5-(3,6-dihydropyridin-1(2H)-ylcarbonyl)pyridin-2-yl]piperazin-1-yl}acetyl)piperazine] | < 1
22 | O=C(CN1CCN(c2ccc(C(=O)N3CCCCC3)cn2)CC1)N1CCN(C2CCC2)CC1 [Compound 610, 1-cyclobutyl-4-({4-[5-(piperidin-1-ylcarbonyl)pyridin-1-yl]piperazin-1-yl}acetyl)piperazine] | < 1
23 | O=C(CN1CCN(c2ccc(C(=O)N3CCCC3)cn2)CC1)N1CCN(C2CCC2)CC1 [Compound 611, 1-cyclobutyl-4-({4-[5-(pyrrolidin-1-ylcarbonyl)pyridin-2-yl]piperazin-1-yl}acetyl)piperazine] | < 1
24 | CCC1CCCCN1C(=O)c1cccc(N2CCN(CC(=O)N3CCN(C4CCC4)CC3)CC2)c1 (stereo not shown) [Compound 638, 1-cyclobutyl-4-[(4-{3-[(2-ethylpiperidin-1-yl)carbonyl]phenyl}piperazin-1-yl)acetyl]piperazine] | < 1
25 | CC1CCCCN1C(=O)c1cccc(N2CCN(CC(=O)N3CCN(C4CCC4)CC3)CC2)c1 (stereo not shown) [Compound 639, 1-cyclobutyl-4-[(4-{3-[(2-methylpiperidin-1-yl)carbonyl]phenyl}piperazin-1-yl)acetyl]piperazine] | < 1
26 | CC1CCCN1C(=O)c1cccc(N2CCN(CC(=O)N3CCN(C4CCC4)CC3)CC2)c1 (stereo not shown) [Compound 640, 1-cyclobutyl-4-[(4-{3-[(2-methylpyrrolidin-1-yl)carbonyl]phenyl}piperazin-1-yl)acetyl]piperazine] | < 1
27 | CC1CC(C)CN(C(=O)c2cccc(N3CCN(CC(=O)N4CCN(C5CCC5)CC4)CC3)c2)C1 (stereo not shown) [Compound 641, 1-cyclobutyl-4-[(4-{3-[(3,5-dimethylpiperidin-1-yl)carbonyl]phenyl}piperazin-1-yl)acetyl]piperzaine] | < 1
28 | CC1CCN(C(=O)c2cccc(N3CCN(CC(=O)N4CCN(C5CCC5)CC4)CC3)c2)CC1 [Compound 642, 1-cyclobutyl-4-[(4-{3-[(4-methylpiperidin-1-yl)carbonyl]phenyl}piperazin-1-yl)acetyl]piperazine] | < 1
29 | CCC1CCCCN1C(=O)c1ccc(N2CCN(CC(=O)N3CCN(C4CCC4)CC3)CC2)cc1 (stereo not shown) [Compound 643, 1-cyclobutyl-4-[(4-{4-[(2-ethylpiperidin-1-yl)carbonyl]phenyl}piperazin-1-yl)acetyl]piperazine] | < 1
30 | CC1CCCCN1C(=O)c1ccc(N2CCN(CC(=O)N3CCN(C4CCC4)CC3)CC2)cc1 (stereo not shown) [Compound 644, 1-cyclobutyl-4-[(4-{4-[(2-methylpiperidin-1-yl)carbonyl]phenyl}piperazin-1-yl)acetyl]piperazine] | < 1
31 | CC1CCCN1C(=O)c1ccc(N2CCN(CC(=O)N3CCN(C4CCC4)CC3)CC2)cc1 (stereo not shown) [Compound 645, 1-cyclobutyl-4-[(4-{4-[(2-methylpyrrolidin-1-yl)carbonyl]phenyl}piperazin-1-yl)acetyl]piperazine] | < 1
32 | CC1CC(C)CN(C(=O)c2ccc(N3CCN(CC(=O)N4CCN(C5CCC5)CC4)CC3)cc2)C1 (stereo not shown) [Compound 646, 1-cyclobutyl-4-[(4-{4-[(3,5-dimethylpiperidin-1-yl)carbonyl]phenyl}piperazin-1-yl)acetyl]piperazine] | < 1
33 | O=C(CN1CCN(c2ccc(C(=O)N3CCC(F)(F)CC3)cc2)CC1)N1CCN(C2CCC2)CC1 [Compound 647, 1-cyclobutyl-4-[(4-{4-[(4,4-difluoropiperidin-1-yl)carbonyl]phenyl}piperazin-1-yl)acetyl]piperazine] | < 1
34 | O=C(CN1CCN(c2ccc(C(=O)N3CCC(F)CC3)cc2)CC1)N1CCN(C2CCC2)CC1 [Compound 648, 1-cyclobutyl-4-[(4-{4-[(4-fluoropiperidin-1-yl)carbonyl]phenyl}piperazin-1-yl)acetyl]piperazine] | < 1
35 | CC1CCN(C(=O)c2ccc(N3CCN(CC(=O)N4CCN(C5CCC5)CC4)CC3)cc2)CC1 [Compound 649, 1-cyclobutyl-4-[(4-{4-[(4-methylpiperidin-1-yl)carbonyl]phenyl}piperazin-1-yl)acetyl]piperazine] | < 1
36 | CCC1CCCCN1C(=O)c1ccc(N2CCN(CC(=O)N3CCN(C4CCC4)CC3)CC2)nc1 (stereo not shown) [Compound 650, 1-cyclobutyl-4-[(4-{5-[(2-ethylpiperidin-1-yl)carbonyl]pyridin-2-yl}piperazin-1-yl)acetyl]piperazine] | < 1
37 | CC1CCCCN1C(=O)c1ccc(N2CCN(CC(=O)N3CCN(C4CCC4)CC3)CC2)nc1 (stereo not shown) [Compound 651, 1-cyclobutyl-4-[(4-{5-[(2-methylpiperidin-1-yl)carbonyl]pyridin-2-yl}piperazin-1-yl)acetyl]piperazine] | < 1
